Test results from US20100063273A1, “NOVEL CRYSTAL OF PIPERACILLIN SODIUM” (Toyama Chemical Co., Ltd, priority 2007, published 2010).

Tests used:
Assay type in all cases: physicochemical
[1] = Hygroscopic test; details: for Ratio of change of weight: 25° C., three days; for Hygroscopic (moisture absorption) stability compared with the amorphous body: result in words
Method: (§1) As test substances, the V type crystal (Example 1), the VI type crystal (Example 2) and the amorphous body (Comparative example 1) were used.
Test substances were allowed to stand at 25° C. for three days under 7, 11, 22, 33 and 57% relative humidity, the content of moisture was measured according to Japanese pharmacopoeia, general tests, water determination method (Karl Fischer's method) and the changes of weight were calculated.

[2] = Purity stability test (storage at 60° C.); details: for Purity stability: 60° C. storage, result in words
Method: as §1
Test substance 2.2 g was put in a C2 vial made by Daiichi Glass Co., Ltd., and after the vial was filled with nitrogen gas, the vial was stored at 60° C. After the initiation of the test, the purity of each test substances was measured by high-performance liquid chromatographic method at 1 week, 2 weeks and 4 weeks later (a notice of the 340th Apr. 4, 2001 by Ministry of Health and Welfare medicinal safe directors of bureaus).

[3] = Coloration stability test (storage at 60° C.); details: for Coloration stability of exterior appearance: 60° C. storage, result in words
Method: as §1
Test substance 2.2 g was put in a C2 vial made by Daiichi Glass Co., Ltd., and after the vial was filled with nitrogen gas, the vial was stored at 60° C. After the initiation of the test, the color difference (ΔE), degree of whiteness (W) and yellowness (YI) of each test substances were measured by a color-difference meter at 1 week, 2 weeks and 4 weeks later.

[4] = Light exposure stability test; details: for By-product I / Piperacillin / Total amount of relative substances: Initiation of test
Method: As test substances, the VI type crystal (Example 2) and the amorphous body (Comparative example 1) were used.
Test substance 2.2 g was put in a C2 vial made by Daiichi Glass Co., Ltd., and after the vial was filled with nitrogen gas, the vial was radiated ([…] 1×/hr) with D65 lamp (FLR20S-D-EDL-D65/M) at 25° C.
After the initiation of the test and the radiation of […] 1×/hr, the purity of each test substances was measured by high-performance liquid chromatographic method (a notice of the 340th Apr. 4, 2001 by Ministry of Health and Welfare medicinal safe directors of bureaus).

[5] = Light exposure stability test; details: D65 lamp, 25° C., 1.20 million lx·hr
[6] = Dissolution test; details: for Dissolution time: 2.2 g in injectable water 10 mL, shaken, complete dissolution by unaided eye, mean of three, sodium monohydrate; for Dissolution compared with the amorphous body: result in words
Method: as §1
Test substance 2.2 g was put in a C2 vial made by Daiichi Glass Co., Ltd., injectable water 10 mL was added to the vial, the vial was fixed laterally and was shaken by MRK incubator-shaker (4 cm of shaking width, 48 times/minute of shaking rate).
Complete dissolution was judged by an unaided eye, and the length of time to need for the complete dissolution was measured.
The test was carried out at three times respectively, and those mean values were assumed to the dissolution time.

[7] = 60° C., 1 week, nitrogen-filled vial
[8] = 60° C., 2 weeks, nitrogen-filled vial
[9] = 60° C., 4 weeks, nitrogen-filled vial
[10] = 7% relative humidity, sodium monohydrate
[11] = 11% relative humidity, sodium monohydrate
[12] = 22% relative humidity, sodium monohydrate
[13] = 33% relative humidity, sodium monohydrate
[14] = 57% relative humidity, sodium monohydrate
[15] = 60° C., 1 week, nitrogen-filled vial, sodium monohydrate
[16] = 60° C., 2 weeks, nitrogen-filled vial, sodium monohydrate
[17] = 60° C., 4 weeks, nitrogen-filled vial, sodium monohydrate
[18] = Initiation of test, sodium monohydrate
[19] = 60° C., 1 week, sodium monohydrate
[20] = 60° C., 2 weeks, sodium monohydrate
[21] = 60° C., 4 weeks, sodium monohydrate

CCN1CCN(C(=O)N[C@@H](C(=O)N[C@@H]2C(=O)N3[C@@H]2SC(C)(C)[C@@H]3C(=O)[O-])c2ccccc2)C(=O)C1=O.[Na+] [Comparative example 1, piperacillin sodium]
Ratio of change of weight ([1]; 7% relative humidity): 2.20 w/w %
Ratio of change of weight ([1]; 11% relative humidity): 3.12 w/w %
Ratio of change of weight ([1]; 22% relative humidity): 4.99 w/w %
Ratio of change of weight ([1]; 33% relative humidity): 6.78 w/w %
Ratio of change of weight ([1]; 57% relative humidity): 11.03 w/w %
By-product I [2, 7]: 0.80
Decomposition product I [2, 7]: 0.13
Piperacillin [2, 7]: 98.27
By-product I [2, 8]: 0.97
Decomposition product I [2, 8]: 0.17
Piperacillin [2, 8]: 98.05
By-product I [2, 9]: 1.21
Decomposition product I [2, 9]: 0.30
Piperacillin [2, 9]: 97.04
By-product I ([2]; Initiation of test): 0.22
Decomposition product I ([2]; Initiation of test): 0.01
Piperacillin ([2]; Initiation of test): 99.51
Color difference (ΔE) ([3]; 60° C., 1 week): 2.76
Degree of whiteness (W) ([3]; 60° C., 1 week): 94.66
Degree of yellowness (YI) ([3]; 60° C., 1 week): 6.51
Color difference (ΔE) ([3]; 60° C., 2 weeks): 4.27
Degree of whiteness (W) ([3]; 60° C., 2 weeks): 93.29
Degree of yellowness (YI) ([3]; 60° C., 2 weeks): 8.97
Color difference (ΔE) ([3]; 60° C., 4 weeks): 5.73
Degree of whiteness (W) ([3]; 60° C., 4 weeks): 91.87
Degree of yellowness (YI) ([3]; 60° C., 4 weeks): 11.25
Degree of whiteness (W) ([3]; Initiation of test): 96.86
Degree of yellowness (YI) ([3]; Initiation of test): 2.17
By-product I [4]: 0.23
Piperacillin [4]: 99.10
Total amount of relative substances [4]: 0.90
By-product I [5]: 0.31
Piperacillin [5]: 98.86
Total amount of relative substances [5]: 1.14

CCN1CCN(C(=O)N[C@@H](C(=O)N[C@@H]2C(=O)N3[C@@H]2SC(C)(C)[C@@H]3C(=O)O)c2ccccc2)C(=O)C1=O [Example 1, piperacillin sodium monohydrate]
Dissolution time [6]: 43 s
Dissolution compared with the amorphous body [6]: dissolved in a short period of time than the amorphous body
Ratio of change of weight [1, 10]: 0 w/w %
Ratio of change of weight [1, 11]: 0.93 w/w %
Ratio of change of weight [1, 12]: 3.18 w/w %
Ratio of change of weight [1, 13]: 4.77 w/w %
Ratio of change of weight [1, 14]: 8.43 w/w %
Hygroscopic (moisture absorption) stability compared with the amorphous body ([1]; listed as V type crystal, sodium monohydrate): superior in the moisture absorption stability to the amorphous body
Purity stability [2]: stable
By-product I [2, 15]: 0.21
Decomposition product I [2, 15]: 0.03
Piperacillin [2, 15]: 99.66
By-product I [2, 16]: 0.33
Decomposition product I [2, 16]: 0.08
Piperacillin [2, 16]: 99.37
By-product I [2, 17]: 0.59
Decomposition product I [2, 17]: 0.26
Piperacillin [2, 17]: 98.62
Decomposition product I ([2]; Initiation of test): Not detected
By-product I [2, 18]: 0.04
Piperacillin [2, 18]: 99.92
Coloration stability of exterior appearance [3]: stable
Color difference (ΔE) [3, 19]: 0.60
Degree of whiteness (W) [3, 19]: 96.64
Degree of yellowness (YI) [3, 19]: 1.77
Color difference (ΔE) [3, 20]: 0.69
Degree of whiteness (W) [3, 20]: 96.55
Degree of yellowness (YI) [3, 20]: 1.96
Color difference (ΔE) [3, 21]: 1.33
Degree of whiteness (W) [3, 21]: 96.20
Degree of yellowness (YI) [3, 21]: 3.03
Degree of whiteness (W) [3, 18]: 96.45
Degree of yellowness (YI) [3, 18]: 0.94

CCN1CCN(C(=O)N[C@@H](C(=O)N[C@@H]2C(=O)N3[C@@H]2SC(C)(C)[C@@H]3C(=O)O)c2ccccc2)C(=O)C1=O [Example 2, piperacillin sodium monohydrate]
Dissolution time [6]: 50 s
Dissolution compared with the amorphous body [6]: dissolved in a short period of time than the amorphous body
Ratio of change of weight [1, 10]: 1.16 w/w %
Ratio of change of weight [1, 11]: 1.54 w/w %
Ratio of change of weight [1, 12]: 3.14 w/w %
Ratio of change of weight [1, 13]: 3.98 w/w %
Ratio of change of weight [1, 14]: 5.28 w/w %
Hygroscopic (moisture absorption) stability compared with the amorphous body ([1]; listed as VI type crystal, sodium monohydrate): superior in the moisture absorption stability to the amorphous body
Purity stability [2]: stable
By-product I [2, 15]: 0.07
Decomposition product I [2, 15]: 0.01
Piperacillin [2, 15]: 99.82
By-product I [2, 16]: 0.11
Decomposition product I [2, 16]: 0.02
Piperacillin [2, 16]: 99.75
By-product I [2, 17]: 0.11
Decomposition product I [2, 17]: 0.04
Piperacillin [2, 17]: 99.73
Decomposition product I ([2]; Initiation of test): Not detected
By-product I [2, 18]: 0.02
Piperacillin [2, 18]: 99.94
Coloration stability of exterior appearance [3]: stable
Color difference (ΔE) [3, 19]: 0.39
Degree of whiteness (W) [3, 19]: 95.64
Degree of yellowness (YI) [3, 19]: 1.35
Color difference (ΔE) [3, 20]: 0.54
Degree of whiteness (W) [3, 20]: 95.60
Degree of yellowness (YI) [3, 20]: 1.64
Color difference (ΔE) [3, 21]: 0.79
Degree of whiteness (W) [3, 21]: 95.57
Degree of yellowness (YI) [3, 21]: 2.02
Degree of whiteness (W) [3, 18]: 95.94
Degree of yellowness (YI) [3, 18]: 0.85
By-product I [4]: 0.15
Piperacillin [4]: 99.81
Total amount of relative substances [4]: 0.19
Light exposure stability ([4]; result in words): stable
By-product I [5]: 0.14
Piperacillin [5]: 99.73
Total amount of relative substances [5]: 0.27

CCN1CCN(C(=O)N[C@@H](C(=O)N[C@@H]2C(=O)N3[C@@H]2SC(C)(C)[C@@H]3C(=O)O)c2ccccc2)C(=O)C1=O [III type crystal, piperacillin sodium monohydrate]
Dissolution compared with the amorphous body [6]: dissolved in a short period of time than the amorphous body
Hygroscopic (moisture absorption) stability compared with the amorphous body ([1]; sodium monohydrate): superior in hygroscopic stability to the amorphous body
